Reference: patent US8895561B2, “Compounds and methods for treating candidiasis and aspergillus infections” (Cellceutix Corporation, priority 2012, dated 2014)
Converted amounts (≈) assume the structure as drawn. Where two headings read alike, the source gives them in different places.

Key:
C. albicans = experiment: Disseminated candidiasis model, survival study; type: in vivo; conditions: neutropenic mice
Protocol: Mice were made neutropenic with i.p. injections of cyclophosphamide (150 mg/kg in 10 mL/kg) at 4 and 1 day before inoculation. Each animal was then inoculated by injecting 0.1 mL of inoculum of C. albicans in a tail vein. At 2 hours post-infection, the standard was administered orally and the test compound by IV. Compounds were dosed once daily for 4 days.
The kidneys were collected from four mice in Group 1 at 2 hours after infection, from four mice in Groups 2-5 at five days after infection, and from all surviving mice in the infected treatment groups. An aliquot of sterile PBS were added to each tube and the contents homogenized with a tissue homogenizer. Serial dilutions of the tissue homogenates were conducted, 0.1 mL aliquots were spread on SDA plates and the plates incubated at 35° C. overnight. The CFU/kidneys were determined from colony counts.
Survival data was analyzed using the log-rank (Mantel-Cox) test and one-way ANOVA with Tukey's Multiple Comparisons Test was performed on the yeast density and change in body weight data (GraphPad InStat version 5.04).

P. aeruginosa 10145 = experiment: Bacterial MIC, broth microdilution, CLSI; type: cell-based; conditions: Pseudomonas aeruginosa; P. aeruginosa 10145
Method in brief: (§1)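 MICs by broth microdilution under standard CLSI conditions against E. coli 25922, S. aureus 27660, E. faecalis 29212, P. aeruginosa 10145 and K. pneumoniae 13883.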

S. aureus 27660 = experiment: Bacterial MIC, broth microdilution, CLSI; type: cell-based; conditions: Staphylococcus aureus; S. aureus 27660
Method in brief: as §1

K. pneumoniae 13883 = experiment: Bacterial MIC, broth microdilution, CLSI; type: cell-based; conditions: Klebsiella pneumoniae
Method in brief: as §1

E. faecalis 29212 = experiment: Bacterial MIC, broth microdilution, CLSI; type: cell-based; conditions: Enterococcus faecalis; E. faecalis 29212
Method in brief: as §1

[1] = test system: C. albicans GDH2346 hyphal biofilm; experiment: Candida IC50 in the hyphal state / hyphal biofilm, MTS viability assay; type: cell-based; conditions: Candida albicans
Protocol: Candida IC50s were determined by OD600 and fluorescence from vegetative cells and by MTS viability assay in the hyphal state. MICs were determined using a broth microdilution assay under standard CLSI conditions Bacteria strains: E. coli 25922 (EC), S. aureus 27660 (SA), E. faecalis 29212 (EF), P. aeruginosa 10145 (PA), and K. pneumoniae 13883 (KP). Cytotoxicity (EC50) was determined against mouse 3T3 fibroblasts, human transformed liver HepG2 cells, and human oral keratinocyte cell line, OKF6/TERT using an MTS viability assay. Candida IC50s<10 μg/mL, MICs<5 μg/mL and cytotoxicity EC50s>100 μM are indicated in green. MICs>5 μg/mL and cytotoxicity EC50s<100 μM are indicated in red. To form the biofilm, yeast were grown in RPMI/MOPS, 0.4% sucrose pH7.4 media supplemented with 10% FBS in tissue culture-treated flat bottom 96 well plates for 48 hours. The filamentous yeast cultures were then vigorously washed to remove any non-filamentous, non-attached yeast. The remaining attached filamentous biofilm yeast were incubated in saline containing serially diluted compounds for 24 hours. The cultures were aspirated to remove compound, rinsed and overlayed with RPMI/MOPS, 0.4% sucrose pH7.4 media. Biofilm viability was measured using a cell proliferation assay (CellTiter96 Aqueous Kit from Promega) and IC50s were determined using Prism GraphPad software (nonlinear fit, Table 3).

C. albicans GDH2346 = experiment: Time kill; type: cell-based; conditions: FIGS. 6A and 6B
Protocol: Time kills were performed in the same manner as IC50s. At each time point yeast were removed, diluted as necessary and plated on YPD agar to determine viable CFUs.

[2] = test system: C. albicans (GDH2346) hyphae; experiment: Activity against hyphae, Live-Dead stain fluorescence microscopy; type: cell-based; conditions: 8 μg/mL, 15 to 60 minutes
Protocol: C. albicans (GDH2346) was grown in 10% FCS for 3 days to achieve hyphae. Hyphae were treated with Compound 100 (8 μg/mL) for 0 minutes (see, FIG. 2A), 15 minutes (see, FIG. 2B), 30 minutes (see, FIG. 2C), or 60 minutes (see, FIG. 2D). Cultures were stained with FungaLight Live-Dead stain (InVitrogen) and observed under fluorescence microscopy (100× magnification).

[3] = test system: C. albicans (clinical isolate GDH2346); experiment: Mouse model of oral candidiasis; type: in vivo, mice
Protocol: To examine the activity of Compound 100 in vivo, an oral model of Candida infection was established in C57B1/6 mice. Animals were first treated for 5 days with oral tetracycline to reduce normal oral flora. An infection was initiated in the mice by inoculating a 50 μL suspension of C. albicans onto lightly scored tongues. This led to colonization of the tongues by days 2 to 4 after inoculation as measured by histological analysis and by recovery of viable colonies upon homogenization. Topical treatment of the infections on day 3 with a single 50 μL dose of a 1 mg/mL compound solution in a neutral hydrogel was sufficient to reduce the total colony counts by greater than 10-fold, equivalent to a similar treatment with an equivalent concentration of Nystatin suspension. […] 8-week old male mBD-1(−/−) mice on a C57B1/6 background were pre-treated for 5 days with 2.5 mg/mL oral tetracycline to reduce normal oral flora (n=5 per group; n=4 for nystatin group). Day 0: infection initiated by oral inoculation of a 50 μL suspension of C. albicans (clinical isolate GDH2346 at 5×10^7 cfu/mL) onto a cotton ball after lightly scoring the tongues. Day 3: Single topical administration of test agent (10 mg/mL) applied in 0.05 mL hydrogel. Tissue was harvested 24 hours post-treatment, homogenized, and quantitated by serial dilution and plating.

[4] = 48 h, 2-day hyphal biofilm cultures, read-out: Anti-C. albicans GDH2346 Hyphal (IC50)
[5] = hyphal state, read-out: IC50 Candida, Hyphal

EC50 (P. aeruginosa 10145) [µg/mL]	EC50 (S. aureus 27660) [µg/mL]	EC50 (K. pneumoniae 13883) [µg/mL]	EC50 (E. faecalis 29212) [µg/mL]	IC50 [1, 4] [µg/mL]	IC50 [1, 5] [µg/mL]	Structure (SMILES)	survival over a 14-day period, p between Fluconazole and compound (C. albicans; 10 mg/kg IV once daily for 4 days)	survival over a 14-day period, p between Fluconazole and compound (C. albicans; 15 mg/kg IV once daily for 4 days)	killing kinetics (C. albicans GDH2346)	death of hyphal cultures [2]	reduction of total colony counts ([3]; single 50 μL dose of 1 mg/mL solution in neutral hydrogel, day 3, C57B1/6 mice)	efficacy relative to Nystatin ([3]; single topical dose 10 mg/mL in 0.05 mL hydrogel on day 3, tongue harvested 24 hours post-treatment) [fold]	effect on infected tongue burden ([3]; single topical dose 10 mg/mL in hydrogel)
50 (≈ 68.5 µM)	25 (≈ 34.3 µM)	> 50	25 (≈ 34.3 µM)	–	2.29 (≈ 3.14 µM)	NCCCOc1cc(-c2cn(-c3cc(OCCCN)cc(OCCCN)c3)nn2)cc(-c2cn(-c3cc(OCCCN)cc(OCCCN)c3)nn2)c1 [Compound 137]	–	–	–	–	–	–	–
3.13 (≈ 4.15 µM)	0.78 (≈ 1.03 µM)	1.56 (≈ 2.07 µM)	0.78 (≈ 1.03 µM)	4.9 (≈ 6.49 µM)	4.9 (≈ 6.49 µM)	NCCSc1cc(SCCN)c(C(F)(F)F)cc1NC(=O)c1cc(C(=O)Nc2cc(C(F)(F)F)c(SCCN)cc2SCCN)ncn1 [Compound 100]	–	–	cidal activity with rapid killing kinetics	rapidly caused death of hyphal cultures at low concentrations	greater than 10 fold	50	nearly sterilized the infected tongue
50 (≈ 103 µM)	0.39 (≈ 0.805 µM)	50 (≈ 103 µM)	0.098 (≈ 0.202 µM)	0.71 (≈ 1.47 µM)	0.71 (≈ 1.47 µM)	N=C(N)N1CCN(c2ccc(-c3cc(-c4ccc(N5CCN(C(=N)N)CC5)cc4)ncn3)cc2)CC1 [Compound 136]	–	–	–	–	–	–	–

Structure (SMILES)	EC50 (P. aeruginosa 10145) [µg/mL]	EC50 (S. aureus 27660) [µg/mL]	EC50 (K. pneumoniae 13883) [µg/mL]	EC50 (E. faecalis 29212) [µg/mL]	IC50 [1, 4] [µg/mL]	IC50 [1, 5] [µg/mL]	survival over a 14-day period, p between Fluconazole and compound (C. albicans; 10 mg/kg IV once daily for 4 days)	survival over a 14-day period, p between Fluconazole and compound (C. albicans; 15 mg/kg IV once daily for 4 days)	killing kinetics (C. albicans GDH2346)	death of hyphal cultures [2]	reduction of total colony counts ([3]; single 50 μL dose of 1 mg/mL solution in neutral hydrogel, day 3, C57B1/6 mice)	efficacy relative to Nystatin ([3]; single topical dose 10 mg/mL in 0.05 mL hydrogel on day 3, tongue harvested 24 hours post-treatment) [fold]	effect on infected tongue burden ([3]; single topical dose 10 mg/mL in hydrogel)
NCCCOc1cc(OCCCN)cc(-c2ccc3c(c2)c2cc(-c4cc(OCCCN)cc(OCCCN)c4)ccc2n3CCCN)c1 [Compound 135]	> 50	12.5 (≈ 18.7 µM)	12.5 (≈ 18.7 µM)	12.5 (≈ 18.7 µM)	2.68 (≈ 4.01 µM)	2.68 (≈ 4.01 µM)	< 0.01	< 0.01	cidal activity with rapid killing kinetics	–	–	–	–
